Publication PMC6214853, “Cytotoxic, tubulin-interfering and proapoptotic activities of 4′-methylthio-trans-stilbene derivatives, analogues of trans-resveratrol” (Cytotechnology, 2018)
Values joined by “and” are separate entries in the source; they are usually repeats but may differ in a detail not shown here. Equal values may be shown once.

Assays:
[1] = system: MCF12A, MCF7, HaCaT and A431 cell lines; experiment: Annexin-V/propidium iodide assay; format: cell-based, human; conditions: 24 h incubation, all four cell lines
Experimental: (§1) Spontaneously immortalized human keratinocyte HaCaT cells were purchased from Cell Lines Service (CLS, Eppelheim, Germany). Human epidermoid carcinoma A431 cells were obtained from Deutsche Sammlung von Mikroorganismen und Zellkulturen (DSMZ, Braunschweig, Germany). MCF7 (ECACC 86012803) and MCF12A (ECACC10782) cells were purchased from the European Collection of Cell Cultures (Salisbury, Wiltshire, UK). MCF12A cells were cultured in 95% 1:1 mixture of DMEM and Ham’s F12 medium, 20 ng/mL human epidermal growth factor, 500 ng/mL hydrocortisone and 5% horse serum. The other cell lines were cultured in Dulbecco’s modified Eagle’s medium (DMEM) supplemented with 10% fetal bovine serum and 1% (v/v) antibiotics solution. Cells were incubated at 37 °C in an atmosphere consisting of 95% air and 5% CO2 in a humidified incubator until they reached 70% confluency. 1 × 10^6 cells were seeded in 40 mm ø culture dishes. After 24 h of preincubation in DMEM containing 5% of FBS, the cells were treated with resveratrol or its analogs, and the incubation was continued for a subsequent 24 h to assess apoptosis or cell cycle distribution. Then, the cells were harvested. Control cells were treated with DMSO, at a concentration of less than 0.1%.
Apoptosis and necrosis were detected using Annexin-V-FLUOS Staining Kit assay (Roche Diagnostics GmbH, Mannheim, Germany), according to the manufacturer’s instruction. After have been treated with test compounds for 24 h, the cells were transferred (1 × 10^6 cells in 100 µL of the solution) into 5 mL culture tubes followed by the addition of 2 µL of Annexin-V-Fluos and 2 µL PI. Camptothecin at a final concentration of 50 nM was used as a positive control. Samples were gently mixed and incubated for 15 min at RT (25 °C) in the dark. Fluorescence of cell surface (AV) and DNA-bound PI markers was analyzed with flow cytometry (Becton–Dickinson, San Jose, CA, USA) at 488 nm excitation wavelength, emission 518 and 617 nm for AV and PI, respectively.

MCF12A cells [2] = experiment: Flow cytometry cell cycle analysis, MCF12A; format: cell-based, human; conditions: 24 h incubation, PI flow cytometry
Experimental: as §1
(§2) The cells harvested after a 24 h incubation with the test compounds were washed with 1 mL of PBS and fixed with 70% ethanol. The ethanol was added dropwise to the cell pellet while vortexing to ensure fixation of all cells and minimizing clumping. After a 30 min incubation, the cells were washed twice in PBS, and 250 µL of a solution containing 50 µg/mL PI, 100 µg/mL RNase A (Sigma, St. Louis, MO, USA) in PBS was added to the pellet and incubated for 30 min at 37 °C in the dark. The stained cells were analyzed by FACSCanto Flow Cytometer (Becton–Dickinson). Camptothecin at a final concentration of 50 nM was used as a positive control. Data analysis and acquisition were performed using FACS Diva software (Becton–Dickinson).

A431 cells [3] = experiment: MTT cell viability assay, A431; format: cell-based; conditions: Homo sapiens, A-431, A431, 48 h treatment
Experimental: as §1
(§3) The effect of resveratrol and 4′-methylthiostilbenes on cell viability was assessed with MTT assay according to the standard protocol described earlier (Zielińska-Przyjemska et al. [2015]). Briefly, the cells were seeded in 96-well plates at a density of 1 × 10^4 cells/well in 100 μL of growth medium. They were allowed to attach overnight and either resveratrol or the appropriate analog was then added to the culture medium at various concentrations (0–200 μM) for 48 h at 37 °C. The cells were subsequently incubated with MTT (0.5 mg/mL) solution for another 4 h. The water insoluble formazan crystals were solubilized in acidic isopropanol before the measurement of absorbance using a microplate reader (TECAN Infinite M200, TK Biotech, Warsaw, Poland) at 540 and 690 nm. All of the experiments were repeated three times, with at least three measurements per assay.

HaCaT cells [4] = experiment: MTT cell viability assay, HaCaT; format: cell-based; conditions: Homo sapiens, 48 h treatment
Experimental: as §1, §3

MCF12A cells [5] = experiment: MTT cell viability assay, MCF12A; format: cell-based; conditions: Homo sapiens, MCF-12A, 48 h treatment
Experimental: as §1, §3

purified porcine tubulin = biological target: T1, purified porcine tubulin (Sus scrofa, UniProt P02554); experiment: Tubulin polymerization assay in vitro; format: biochemical; conditions: absorbance at steady state
T1 construct: purified porcine tubulin purchased from Cytoskeleton Inc; purchased Cytoskeleton Inc. (Denver, CO, USA)
Experimental: Tubulin polymerization was assessed with the use of purified porcine tubulin purchased from Cytoskeleton Inc. (Denver, CO, USA) in accordance with a protocol recommended by the manufacturer. Tubulin was dissolved in a buffer containing: 80 mM PIPES pH 6.9, 2 mM MgCl2, 0.5 mM EGTA and 1 mM GTP, at a final concentration of 3 mg/mL and placed in a 96-well plate (0.3 mg per well). The polymerization reaction was started by increasing temperature from 4 to 37 °C upon transfer of the reaction mixture to a pre-warmed plate. The assembly of microtubules was monitored spectrophotometrically by measuring absorbance at 350 nm for 60 min, at a temperature of 37 °C. Paclitaxel was used as stabilizing positive control.

[6] = system: MCF12A, MCF7, HaCaT and A431 cell lines; experiment: TUNEL assay; format: cell-based, human; conditions: 24 h incubation, versus control
Experimental: as §1
TUNEL assay was applied to detect apoptotic cells using In Situ Cell Death Detection Kit (Roche Diagnostics, Indianapolis, IN, USA). Briefly, after incubation with the test compounds for 24 h, the cells were detached with a 0.5% trypsin–EDTA solution and collected. Cell suspensions were fixed with 4% paraformaldehyde and permeabilized with 0.1% Triton X-100 in 0.1% sodium citrate. After the TUNEL reaction mixture was added, cells were incubated for 1 h at 37 °C in a humidified chamber and samples were analyzed by FACSCanto Flow Cytometer (Becton–Dickinson). Camptothecin at a final concentration of 50 nM was used as a positive control.

MCF7 cells [7] = experiment: MTT cell viability assay, MCF7; format: cell-based, human; conditions: MCF7, 48 h treatment
Experimental: as §1, §3

MCF7 cells [8] = experiment: Flow cytometry cell cycle analysis, MCF7; format: cell-based, human; conditions: MCF7, 24 h incubation, PI flow cytometry
Experimental: as §1, §2

A431 cells [9] = experiment: Flow cytometry cell cycle analysis, A431; format: cell-based, human; conditions: A431, 24 h incubation, PI flow cytometry
Experimental: as §1, with “Control cells were treated with DMSO, at a concentration of less than 0.1%.” left out
(§4) The cells harvested after a 24 h incubation with the test compounds were washed with 1 mL of PBS and fixed with 70% ethanol. […] The stained cells were analyzed by FACSCanto Flow Cytometer (Becton–Dickinson). […]

MCF7 cells [10] = system: MCF7 cells; parameters: method as in Androutsopoulos et al. [2011]; conditions: 96 h exposure; ref Androutsopoulos et al. [2011]; cited from earlier work
tubulin = system: tubulin; parameters: method as in Ma and coworkers ([2008]); conditions: ref Ma and coworkers ([2008]), cited from earlier work
HaCaT cells [11] = experiment: Flow cytometry cell cycle analysis, HaCaT; format: cell-based, human; conditions: 24 h incubation, PI flow cytometry
Experimental: as §1, with “Control cells were treated with DMSO, at a concentration of less than 0.1%.” left out
as §4

T1 sequence (P02554 whole entry): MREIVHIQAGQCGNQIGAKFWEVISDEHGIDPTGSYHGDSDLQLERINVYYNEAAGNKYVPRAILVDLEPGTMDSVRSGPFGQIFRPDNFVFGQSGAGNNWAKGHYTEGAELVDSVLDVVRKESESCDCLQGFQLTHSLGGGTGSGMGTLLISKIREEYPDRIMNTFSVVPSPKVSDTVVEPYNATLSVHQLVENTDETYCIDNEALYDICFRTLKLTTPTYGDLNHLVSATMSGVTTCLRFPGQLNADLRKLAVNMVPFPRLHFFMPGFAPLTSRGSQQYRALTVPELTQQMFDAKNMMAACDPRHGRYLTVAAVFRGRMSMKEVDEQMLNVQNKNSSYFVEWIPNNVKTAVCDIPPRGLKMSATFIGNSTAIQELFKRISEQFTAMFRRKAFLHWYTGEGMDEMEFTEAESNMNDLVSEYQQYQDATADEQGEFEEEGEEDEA
T1 sequence (P02550 whole entry partner): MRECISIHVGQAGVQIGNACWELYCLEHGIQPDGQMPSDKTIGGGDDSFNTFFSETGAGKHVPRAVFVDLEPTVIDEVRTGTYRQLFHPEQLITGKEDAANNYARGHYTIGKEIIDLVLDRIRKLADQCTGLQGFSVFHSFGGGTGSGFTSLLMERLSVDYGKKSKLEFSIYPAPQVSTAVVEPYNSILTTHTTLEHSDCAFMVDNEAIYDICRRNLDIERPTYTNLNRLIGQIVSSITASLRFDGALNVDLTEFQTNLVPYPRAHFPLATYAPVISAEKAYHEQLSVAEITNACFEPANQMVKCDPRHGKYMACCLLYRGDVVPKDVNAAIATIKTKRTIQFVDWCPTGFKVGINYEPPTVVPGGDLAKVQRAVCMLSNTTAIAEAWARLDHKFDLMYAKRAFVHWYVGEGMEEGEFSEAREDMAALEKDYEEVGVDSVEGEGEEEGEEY

SMILES | Apoptosis induction (Annexin-V/PI) [1] | Cell cycle effect (MCF12A cells [2]) | IC50 (A431 cells [3]) | IC50 (HaCaT cells [4]) | IC50 (MCF12A cells [5]) | Tubulin polymerization, steady state level (purified porcine tubulin; 10 µM compound) | Number of TUNEL positive cells [6] | IC50 (MCF7 cells [7]; Homo sapiens, MCF7, 48 h) | Cell cycle effect (MCF7 cells [8]) | further results
COc1cc(OC)c(OC)cc1/C=C/c1ccc(SC)cc1 [2,4,5-MTS, 2,4,5-Trimethoxy-4′-methylthio-trans-stilbene] | induced apoptosis in all the cell lines | G0/G1 phase arrest | 22.6 ± 7.2 µM | 50.9 ± 13.3 µM | 10 ± 3 µM | 123.2 % of control and 123.2 ± 4.5 % of control | statistically significant increase in the number of TUNEL positive cells was observed only in HaCaT and A431 | 5.1 ± 1.4 µM | G0/G1 phase arrest | Tubulin polymerization, steady state level (purified porcine tubulin; 5 µM compound): 106.3 ± 4.2 % of control
COc1cccc(/C=C/c2ccc(SC)cc2)c1 [3-Methoxy-4′-methylthio-trans-stilbene] |  |  | 141 ± 2.8 µM | 183 ± 38.7 µM |  |  |  | 6.6 ± 3.7 µM |  | 
COc1ccc(OC)c(/C=C/c2ccc(SC)cc2)c1 [2,5-Dimethoxy-4′-methylthio-trans-stilbene] |  |  | 47.1 ± 9 µM | 65 ± 24.5 µM |  |  |  | 10.2 ± 6.6 µM |  | 
COc1cc(/C=C/c2ccc(SC)cc2)cc(OC)c1OC [3,4,5-MTS, 3,4,5-Trimethoxy-4′-methylthio-trans-stilbene] | induced apoptosis in all the cell lines | G2/M phase arrest | 19.3 ± 5.5 µM | 10 ± 4.6 µM | 25.7 ± 4.3 µM | 132.9 % of control and 132.9 ± 17.1 % of control | statistically significant increase in the number of TUNEL positive cells was observed only in HaCaT and A431 | 2.07 µM | G2/M phase arrest | Tubulin polymerization, steady state level (purified porcine tubulin; 5 µM compound): 113.4 ± 3.6 % of control; Cell cycle effect (A431 cells [9]): G2/M phase arrest; IC50 (MCF7 cells [7]): 2.1 ± 0.4 µM
COc1cc(/C=C/c2ccc(SC)cc2)cc(OC)c1 [3,5-Dimethoxy-4′-methylthio-trans-stilbene] |  |  | 45.4 ± 7.2 µM | 25.4 ± 13.9 µM |  |  |  | 4.8 ± 3.4 µM |  | 
COc1ccc(/C=C/c2cc(OC)c(OC)c(OC)c2)cc1 [DMU-212, 3,4,5,4′-trans-tetramethoxystilbene] |  |  |  |  |  |  |  |  |  | Toxicity in MCF7 cells (MCF7 cells [10]): submicromolar toxicity; Effect on microtubule polymerization (tubulin; DMU-212 at 2.5 μM versus paclitaxel at 10 μM): comparable to that of paclitaxel
COc1ccccc1/C=C/c1ccc(SC)cc1 [2-Methoxy-4′-methylthio-trans-stilbene] |  |  | 241 ± 10 µM | 106 ± 9.3 µM |  |  |  | 27.3 ± 12.4 µM |  | 
CC(=O)O[C@H]1C(=O)[C@@]2(C)[C@H]([C@H](OC(=O)c3ccccc3)[C@]3(O)C[C@H](OC(=O)[C@H](O)[C@@H](NC(=O)c4ccccc4)c4ccccc4)C(C)=C1C3(C)C)[C@]1(OC(C)=O)CO[C@@H]1C[C@@H]2O [Paclitaxel, reference compound] |  |  |  |  |  | 142.3 % of control and 142.3 ± 9.2 % of control |  |  |  | 
COc1cccc(/C=C/c2ccc(SC)cc2)c1OC [2,3-Dimethoxy-4′-methylthio-trans-stilbene] |  |  | 157 ± 3 µM | 51.8 ± 7.3 µM |  |  |  | 10.6 ± 6.1 µM |  | 
Oc1ccc(/C=C/c2cc(O)cc(O)c2)cc1 [Resveratrol, trans-3,4′,5-trihydroxystilbene] | apoptosis was evident in all the tested cell lines | blocked the cell cycle in S-phase | 49.4 ± 3.8 µM | 85.2 ± 29.2 µM | 93.5 ± 12.1 µM |  | statistically significant in all the cell lines studied | 24.6 ± 3.8 µM | blocked the cell cycle in S-phase | Cell cycle effect (A431 cells [9]): blocked the cell cycle in S-phase; Cell cycle effect (HaCaT cells [11]): arrested in G0/G1-phase; Effect on tubulin polymerization (tubulin): does not influence tubulin polymerization
